Data on one substance can be found in article PMC3401907, “Cellular Uptakes, Biostabilities and Anti-miR-210 Activities of Chiral Arginine-PNAs in Leukaemic K562 Cells” (Chembiochem, 2012).

For experiment [1], the system named is DNA2 (mismatched DNA, G→T). In words: Melting temperature (Tm) of PNA:DNA duplexes, single-mismatch DNA. It is filed as binding. The source says: (§1) Sequence selectivity is a very important issue in view of the use of PNAs in cellular systems, because partial hybridisation might occur with other unrelated miRNAs or, most importantly, with mRNA targets. We analysed the sequence selectivities of our PNAs with stricter models (DNA2 and RNA2) involving single base mismatches (G→T or G→U) located in the middle of the target sequences. In each case the sequence selectivity was confirmed by significant lowering of the melting temperature. The ranges of ΔTm due to the presence of these single mismatches were 8–21 °C for DNA, with the maximum drop in the case of PNA4 and the minimum observed in that of PNA6. For the latter it should be considered that the mismatch was facing the last chiral monomer, preventing the cooperative effect observed in the case of 2D-modifed highly constrained PNA.[22]
(§2) Measurements of Tm values: The Tm values were determined with a Lambda Bio 20 spectrophotometer and a Peltier PTP6 temperature programmer. Thermal denaturation profiles were measured by monitoring the absorbance at 260 nm from 18 to 90 °C with a heating rate of 1 °C min^−1 and recording every 0.1 °C. Measurement conditions: [PNA]=[DNA] or [RNA]=5 μM in PBS buffer [pH 7.0, NaCl (100 mM), NaH2PO4⋅H2O (10 mM), EDTA (0.1 mM)] with urea (5 M).

For experiment [2], the system named is RNA1 (target region of miR-210). In words: Melting temperature (Tm) of PNA:RNA duplexes, full-match RNA. The class given is binding. The conditions noted are these: UV absorbance at 260 nm, strand concentration 5 μM. Here is the method:
(§3) Measurements of Tm values: The Tm values were determined with a Lambda Bio 20 spectrophotometer and a Peltier PTP6 temperature programmer. Thermal denaturation profiles were measured by monitoring the absorbance at 260 nm from 18 to 90 °C with a heating rate of 1 °C min^−1 and recording every 0.1 °C. […]

Experiment [3] has as its system RNA2 (mismatched RNA, G→U). The experiment can be described thus: Melting temperature (Tm) of PNA:RNA duplexes, single-mismatch RNA. The class given is binding. The conditions noted are these: UV absorbance at 260 nm, PBS buffer pH 7 with urea 5 M, strand concentration 5 μM.
Description: as §1, §2

For experiment [4], the system named is K562 cells. The experiment can be described thus: Mithramycin-induced erythroid differentiation (benzidine-positive cells). The conditions noted are these: MTH 15 nM, PNA 2 μM, benzidine-positive cells after 5 days of induction, three independent experiments. It is filed as cell-based, human. Here is the method:
In order to evaluate effects on mithramycin-induced cellular differentiation, K562 cells were treated with MTH in the presence of pept-1, PNA1, PNA2 and PNA4 (each 2 μM). The proportions of benzidine-positive cells were determined after 5 days of induction.
Human cell lines and culture conditions: Human leukaemia K562 cells were cultured under humidified CO2 (5 %)/air in RPMI 1640 medium (Sigma) supplemented with foetal bovine serum (FBS, 10 %, Analitical de Mori, Milan, Italy), penicillin (50 units mL^−1) and streptomycin (50 μg mL^−1).[26] Mithramycin (MTH) was from Sigma. Stock solutions of MTH (100 μM) were stored at −20 °C in the dark and diluted immediately before use. Treatment of K562 cells with MTH was carried out by addition of the appropriate drug concentrations at the beginning of the cultures (cells were seeded at 30 000 mL^−1). The medium was not changed during the induction period. To determine antiproliferative activity, cell growth was studied by determining the cell number per mL with a Z1 Coulter Counter (Coulter Electronics, Hialeah, FL, USA). Erythroid differentiated K562 cells containing haemoglobin were detected by specific reaction with a benzidine/hydrogen peroxide solution as reported elsewhere.[26] The final concentration of benzidine was 0.2 % in glacial acetic acid (5 M) and H2O2 (10 %).

The test system of experiment [5] is miR-210. In words: miR-210 content by RT-qPCR analysis. The class given is cell-based, human. The conditions noted are these: K562 cells, 24 h. As to the method:
K562 cells were treated with 15 nM mithramycin in the presence of a PNA (2 μM), and after 24 h RNA was isolated and miR-210 was assayed by RT-qPCR analysis. This type of test has been used to evaluate miR content in many studies because it allows the free-miR content to be evaluated. […] Figure 5 A and B reports the obtained data, showing that inhibition of miR bioavailability was induced both with the modified PNA and with the peptide-conjugated one, whereas in the case of PNA1 it was unchanged. […] This might be related to inhibition of pre-miR maturation or to unavailability of the miR to the qRT-PCR analysis due to strong complexation with the PNA. In either case the bioavailability of the miR for targeting other genes should be reduced.
Transfection procedures: Anti-miR-210 PNAs were directly added to the cellular medium to reach the indicated final concentrations. K562 cells were cultured in 24-well plates starting from the initial density of 30 000 cells per mL. MTH was administrated together with anti-miR PNAs.
RNA extraction: Cells were isolated by centrifugation at 1500 rpm for 10 min at 4 °C, washed in PBS and lysed in Tri-reagent (Sigma–Aldrich) according to the manufacturer's instructions. The isolated RNA was washed once with cold ethanol (75 %), dried and dissolved in ultrapure nuclease-free water.
Real-time quantitative PCR: For microRNA quantification with real-time RT-PCR reagents, the primers and probes were obtained from Applied Biosystems. Reverse transcriptase (RT) reactions were performed with a TaqMan MicroRNA Reverse Transcription Kit (Applied Biosystems) for hsa-miR-210, hsa-miR-10a, hsa-miR-93, hsa-miR-99b, hsa-miR-126, hsa-miR-149, hsa-miR-424, hsa-miR-483-5p, hsa-miR-625, hsa-let-7c and the iQTM5 real-time PCR System Instrument (Bio-Rad). Relative expression was calculated by the comparative cycle threshold method and U6 microRNA was used as reference gene to normalise all RNA samples, because it is constant in the assayed samples by miR-profiling and quantitative RT-PCR analysis as previously reported.[25]

The subject of experiment [6] is DNA1 (full-match antiparallel DNA). The experiment can be described thus: Melting temperature (Tm) of PNA:DNA duplexes, full-match DNA. It is filed as binding. Particulars: UV absorbance at 260 nm, strand concentration 5 μM. As to the method:
as §3

Consider “H-C5LArgC5LArgG5LArgC5LArgT5LArgG5LArgT5LArgC5LArgACACGCACAG-NH2 [PNA4, 5L Arg (C5) backbone-modified 18-mer PNA, model 2, stretch of consecutive modified monomers]”, for which the “ΔTm due to single mismatch, DNA” value in experiment [1] (DNA1 vs DNA2 (G→T in the middle of the target), urea 5 M) worked out at 21 °C. Further, the “Tm, DNA2 in urea (5 M)” value in experiment [1] (single mismatch, UV absorbance at 260 nm, PBS buffer pH 7 with urea 5 M, strand concentration 5 μM) stood at 56 °C. In addition, the “Tm, RNA1 in water” value in experiment [2] (PBS buffer pH 7, no urea) was greater than 90 °C. Also, the “Tm, RNA1 in urea (5 M)” value in experiment [2] (PBS buffer pH 7 with urea 5 M) worked out at 86 °C. For the same substance, in experiment [3], the “Tm, RNA2 in urea (5 M)” value came out at 75 °C. Also, the “effect on MTH-induced erythroid differentiation” value in experiment [4] is reported as “able to inhibit erythroid differentiation”. Further, in experiment [5] (PNA 2 μM with MTH 15 nM, relative to pept-1 and MTH), the “miR-210 inhibition upon treatment with mithramycin” value was “best results”. In addition, in experiment [5] (PNA 2 μM, Figure 5 A and B, relative to pept-1), the “inhibition of miR-210 bioavailability (miR-210 content)” value is “Stronger inhibition”. The “Tm, DNA1 in urea (5 M)” value in experiment [6] (PBS buffer pH 7 (NaCl 100 mM, NaH2PO4 10 mM, EDTA 0.1 mM) with urea 5 M) was found to be 77 °C. In addition, in experiment [6] (PBS buffer pH 7, no urea, 18 to 90 °C at 1 °C/min), the “Tm, DNA1 in water” value is greater than 90 °C.
